Patent US20030170239A1, “Immunotherapeutic method to prevent islet cell rejection” (priority 2000, published 2003)

Columns and labels:
Lewis rats = assay: Toxicity / body weight of recipients (Example 1); format: in vivo; settings: when FK506 (0.3 mg/kg BW) was added, 12 days follow up
Experimental: (§1) In this study, recipients were administered the following immunosuppressive drugs: anti-CD40L mAb AH.F5 (Biogen, Inc., Cambridge, Mass., U.S.A.; 12 mg/kg BW, administered i.p. on day—1, 0, 1, 7, and then twice weekly); non-depleting anti-CD4 mAb RIB 5/2 (20 mg/kg BW, administered i.p. on day—1, 0, 1, 2, 3, 5, and then twice weekly); Ha4/8, a non-specific control to anti-CD40L (12 mg/kg BW, administered i.p. on day—1, 0, 1, 7, and then twice weekly); and FK-506 (Prograf, Fujisawa, Inc.; diluted to 1.25 mg/ml in sterile water, 0.3 mg/kg BW, administered i.m. daily from day—2, i.e., 2 days prior to transplant).
Control animals increased on average 15% in weight. All antibody treated animals (alone or in combination, but without FK506) increased weight parallel to untreated controls. […] This toxicity is significant, considering that the follow up was only 12 days and that the dose of FK506 (0.3 mg/kg BW) is equal or lower than in studies reporting no toxicity.

[1] = test system: pig islet xenograft in Lewis rats; assay: Immunohistochemical analysis of pig islet xenograft, non-diabetic recipients (Example 1); format: in vivo; parameters: key to Insulin staining of graft: 0 = absent; + = single cell only; ++ = cell groups; +++ = large cell groups; key to OX33 (B cells) leukocytic infiltration (IHC) / ED1 (CD68) leukocytic infiltration (IHC) / CD3 (Tcells) leukocytic infiltration (IHC) / CD8 leukocytic infiltration (IHC) / CD4 leukocytic infiltration (IHC): 0 = absent; + = single or few; ++ = moderate; +++ = plenty; settings: non-diabetic Lewis rats, 2,000 IE pig islets, day +12 post transplant
Description: Pancreata were removed from donor outbred female pigs, >2 years old, by standard surgical technique. Following removal, pancreata were perfused with Liberase HI (Roche Diagnostics Corp., Indianapolis, Ind., U.S.A., Cat. No. 1666720) for intraductal distension. Islet cells were dissociated from the perfused pancreata by the automated method. Cleaved islets were separated from non-islet tissue by continuous OptiPrep gradients (Accurate Chemical and Scientific Corp., Westbury, N.Y., U.S.A., Cat. No. AN-1030061) on a COBE 2991 cell separator (Gambro BCT International, Lakewood, Colo., U.S.A.). The resulting free floating, purified islet cells were cultured in M199 medium supplemented with 20% donor pig serum for 48 hours at 37° C.
Transplantation was conducted by standard surgical technique. Briefly, the recipient animals, non-diabetic inbred male Lewis rats weighing 250-270 grams, were anesthetized with Telazol 0.20 mg/kg BW, administered i.m. In addition, the analgesic buprinorphine was administered s.c. to the recipient animals. Transplantation was conducted by making a left flank incision on the recipient, into which 2,000 donor islet equivalents (IE) were injected under the left kidney capsule via PE-50 tubing according to standard procedure.
as §1
Animals were sacrificed by intracardiac exsanguination after ether anesthesia on day +12 post transplant for histological analysis of the graft. Kidneys bearing xenografts were harvested, snap frozen in liquid nitrogen and stored at −70° C.
The following primary Abs were used for immunohistochemical analysis: W3/24 (anti-CD4; available from Pharmingen) W3/13 (anti-CD3; available from Pharmingen); OX-8 (anti-CD8; available from Pharmingen); NK1.2.3 (anti-NK cell; available from Pharmingen); OX-33 (anti-B cell; available from Serotec); ED1 (anti-CD68/macrophages; available from Serotec); and insulin from Dako. The immunohistochemical analysis was visualized by an avidin-biotin-peroxidase complex method and AEC as chromogen. In the case of a positive immunoreaction, a red-brown precipitate developed.

`C=CC[C@@H]1/C=C(\C)C[C@H](C)C[C@H](OC)[C@H]2O[C@@](O)(C(=O)C(=O)N3CCCC[C@H]3C(=O)O[C@H](/C(C)=C/[C@@H]3CC[C@@H](O)[C@H](OC)C3)[C@H](C)[C@@H](O)CC1=O)[C@H](C)C[C@@H]2OC` [FK, FK-506] was tested, and the body weight lost (Lewis rats) was “around 5%”, the “CD3 (Tcells) leukocytic infiltration (IHC)” value [1] was “++” and the “CD4 leukocytic infiltration (IHC)” value [1] was “++”. The “CD8 leukocytic infiltration (IHC)” value [1] was “+”, the “ED1 (CD68) leukocytic infiltration (IHC)” value [1] was “+” and the “Insulin staining of graft” value [1] was “++”. The “OX33 (B cells) leukocytic infiltration (IHC)” value [1] was “+”.
